Test results taken from ChEMBL document CHEMBL5360669, “Novel Pyrazoloquinoline Compounds as KRAS Inhibitors for Treating Cancer” (ACS Med Chem Lett, 2023).
pIC50: −log10 of the molar value.

Tests used:
[1] = Inhibition of KRAS G12C WB mutant (unknown origin) incubated for 2 hrs; parameters: species or system Homo sapiens
[2] = molecular target: T1, GTPase KRas (Homo sapiens, UniProt P01116, G12C); test: Inhibition of KRAS G12C mutant (unknown origin) by measuring exchange of bodipy-GDP for GppNHp incubated for 2 hrs
[3] = molecular target: T1, GTPase KRas; test: Inhibition of KRAS G12C mutant (unknown origin) incubated for 2 hrs

Measured: pIC50

T1 sequence (P01116 whole entry G12C): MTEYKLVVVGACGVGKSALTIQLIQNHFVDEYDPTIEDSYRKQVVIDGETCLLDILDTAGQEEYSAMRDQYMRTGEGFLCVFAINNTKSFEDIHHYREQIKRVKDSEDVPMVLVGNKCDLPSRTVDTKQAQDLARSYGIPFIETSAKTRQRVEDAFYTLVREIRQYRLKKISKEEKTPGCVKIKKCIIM

CC#CC(=O)N1CC[C@H](n2ncc3c(O[C@@H](C)[C@@H]4CCCN4C)nc4c(F)c(-c5nccc6cccc(C#N)c56)c(Cl)cc4c32)C[C@H]1CC#N
≥ 7.00: all assays above

COC/C=C/C(=O)N1CC[C@H](n2ncc3c(O[C@@H](C)[C@@H]4CCCN4C)nc4c(F)c(-c5nccc6cccc(C#N)c56)c(Cl)cc4c32)C[C@H]1CC#N
≥ 7.00: all assays above

C=C(F)C(=O)N1CC[C@H](n2ncc3c(O[C@@H](C)[C@@H]4CCCN4C)nc4c(F)c(-c5nccc6cccc(C#N)c56)c(Cl)cc4c32)C[C@H]1CC#N
≥ 7.00: all assays above

COC/C=C/C(=O)N1CC[C@H](n2ncc3c(O[C@@H](C)[C@@H]4CCCN4C)nc4c(F)c(-c5cccc6cccc(C#N)c56)c(Cl)cc4c32)C[C@H]1CC#N
≥ 7.00: all assays above

CC#CC(=O)N1CC[C@H](n2ncc3c(O[C@@H](C)[C@@H]4CCCN4C)nc4c(F)c(-c5cccc6cccc(C#N)c56)c(C)cc4c32)C[C@H]1CC#N
≥ 7.00: all assays above

C=C(F)C(=O)N1CC[C@H](n2ncc3c(N4CC(N(C)CC)C4)nc4c(F)c(-c5c(C)c(C)cc6[nH]ncc56)c(Cl)cc4c32)C[C@H]1CC#N
≥ 7.00: all assays above
